Data published in the supplement of paper PMC10307832.

What was measured:
Test in all cases: relative viability (nuclei count vs DMSO), 5 days (fraction); higher = more cells survive
BI-D1870 + Dasatinib = compound: CC(C)CCN1c2nc(Nc3cc(F)c(O)c(F)c3)ncc2N(C)C(=O)C1C [BI-D1870] + Cc1nc(Nc2ncc(C(=O)Nc3c(C)cccc3Cl)s2)cc(N2CCN(CCO)CC2)n1 [Dasatinib] (partner 0.075 µM)
How it was run: (§1)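 Relative viability was taken as the ratio of nuclei in treated wells to nuclei in vehicle wells. Lung cancer cell lines in 1536-well plates received compounds by pin tool one day after seeding, either one drug alone or a fixed anchor-drug dose plus five library-drug doses (not always all listed) in √10 steps. Nuclei were counted on 4× images after 5 days of treatment, and values are medians of duplicate plates.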

Zebularine + Foretinib = compound: O=c1ncccn1[C@@H]1O[C@H](CO)[C@@H](O)[C@H]1O [Zebularine] + COc1cc2c(Oc3ccc(NC(=O)C4(C(=O)Nc5ccc(F)cc5)CC4)cc3F)ccnc2cc1OCCCN1CCOCC1 [Foretinib] (partner 0.25 µM)
How it was run: as §1

BI-D1870 + Bortezomib = compound: CC(C)CCN1c2nc(Nc3cc(F)c(O)c(F)c3)ncc2N(C)C(=O)C1C [BI-D1870] + CC(C)C[C@H](NC(=O)[C@H](Cc1ccccc1)NC(=O)c1cnccn1)B(O)O [Bortezomib] (partner 0.002 µM)
How it was run: as §1

Zebularine + Trametinib = compound: O=c1ncccn1[C@@H]1O[C@H](CO)[C@@H](O)[C@H]1O [Zebularine] + CC(=O)Nc1cccc(-n2c(=O)n(C3CC3)c(=O)c3c(Nc4ccc(I)cc4F)n(C)c(=O)c(C)c32)c1 [Trametinib] (partner 0.02 µM)
How it was run: as §1

Cell Line	relative viability (BI-D1870 + Dasatinib; first compound 0.04 µM)	relative viability (BI-D1870 + Dasatinib; first compound 0.1265 µM)	relative viability (BI-D1870 + Dasatinib; first compound 0.4 µM)	relative viability (BI-D1870 + Dasatinib; first compound 1.265 µM)	relative viability (BI-D1870 + Dasatinib; first compound 4 µM)	relative viability (Zebularine + Foretinib; first compound 1 µM)	relative viability (Zebularine + Foretinib; first compound 3.162 µM)	relative viability (Zebularine + Foretinib; first compound 10 µM)	relative viability (Zebularine + Foretinib; first compound 31.62 µM)	relative viability (Zebularine + Foretinib; first compound 100 µM)	relative viability (BI-D1870 + Bortezomib; first compound 0.04 µM)	relative viability (BI-D1870 + Bortezomib; first compound 0.1265 µM)	relative viability (BI-D1870 + Bortezomib; first compound 0.4 µM)	relative viability (BI-D1870 + Bortezomib; first compound 1.265 µM)	relative viability (BI-D1870 + Bortezomib; first compound 4 µM)	relative viability (Zebularine + Trametinib; first compound 1 µM)	relative viability (Zebularine + Trametinib; first compound 3.162 µM)	relative viability (Zebularine + Trametinib; first compound 10 µM)	relative viability (Zebularine + Trametinib; first compound 31.62 µM)	relative viability (Zebularine + Trametinib; first compound 100 µM)
NCI-H2087	0.93	0.798	0.921	0.891	0.743	1.06	1.04	0.782	0.791	0.284	0.829	0.845	0.927	1.13	0.839	0.195	0.166	0.204	0.206	0.142
LC-2-ad	1.05	0.576	0.473	0.578	0.43	0.868	0.828	0.717	0.674	0.454	1.11	0.921	0.999	1.04	0.953	0.957	0.979	0.657	0.777	0.356
NCI-H1915	0.356	0.276	0.294	0.274	0.261	1.3	1.11		1.26	0.984	1.04	0.951	0.905	1.03	0.879	0.315	0.31	0.322	0.319	0.287
NCI-H2023	0.619	0.378	0.577	0.617	0.426	0.843	0.891	0.713	0.635	0.361	1.2	0.901	0.957	0.95	0.647	0.595	0.636	0.367	0.523	0.308
COR-L 105	0.303	0.294	0.485	0.322	0.384	1.02	0.938	0.755	1.33	0.91	0.835	0.831	0.88	0.774	0.713	0.517	0.394	0.439	0.459	0.396
RERF-LC-KJ	0.968	0.72	0.762	0.814	0.495	1	0.879		0.895	0.871	1.12	0.997	1.13	1.25	0.946	1.02	0.89	0.719	0.87	0.916
LXF-289	0.254	0.239	0.216	0.223	0.244	1.09	0.984	0.847	0.626	0.241	1.05	1.02	1	0.977	0.879	0.796	0.731	0.651	0.488	0.296
PC-14	0.27	0.241	0.272	0.239	0.259	1.03	0.878	0.48	0.191	0.158	0.95	0.909	0.809	0.963	0.559	0.7	0.517	0.197	0.117	0.101
NCI-H650	0.454	0.419	0.431	0.403	0.35	1.02	0.934	0.824	0.447	0.258	1.11	0.784	0.899	0.96	0.611	0.895	0.97	0.826	0.471	0.262
NCI-H1666	0.839	0.84	0.701	0.824	0.744	0.94	0.919	0.805	0.999	0.805	0.871	0.598	0.985	0.879	0.754	0.884	0.817	0.699	0.865	0.842
NCI-H2085	0.246	0.246	0.222	0.239	0.281	0.879	1.06	0.785	0.833	0.503	1.17	0.994	0.947	0.968	0.762	0.491	0.547	0.522	0.433	0.392
NCI-H1734	0.464	0.455	0.436	0.471	0.484	0.931	0.864	0.631	0.529	0.299	1.21	0.904	0.874	0.893	0.602	0.738	0.641	0.527	0.54	0.275
NCI-H2126	0.575	0.6	0.55	0.548	0.483	1.44	1.09	0.97	1.06	0.883	1.12	1.1	1.06	1.14	1.05	0.532	0.561	0.476	0.557	0.437
EMC-BAC-2	0.344	0.326	0.377	0.316	0.296	1.09	1.02	0.856	1.04	1.03	1.18	0.964	1.02	1.09	1.05	0.97	0.9	0.766	0.901	0.941
NCI-H1993	0.663	0.48	0.697	0.868	0.467	0.843	0.697	0.718	0.753	0.704	1.22	0.961	1.12	1.31	0.981	0.55	0.506	0.51	0.574	0.367
NCI-H520	0.207	0.189	0.235	0.198	0.186	0.895	0.742	0.419	0.395	0.243	0.618	0.521	0.525	0.542	0.309	0.651	0.698	0.544	0.314	0.229

Cell Line	relative viability (BI-D1870 + Dasatinib; first compound 0.04 µM)	relative viability (BI-D1870 + Dasatinib; first compound 0.1265 µM)	relative viability (BI-D1870 + Dasatinib; first compound 0.4 µM)	relative viability (BI-D1870 + Dasatinib; first compound 1.265 µM)	relative viability (BI-D1870 + Dasatinib; first compound 4 µM)	relative viability (Zebularine + Foretinib; first compound 1 µM)	relative viability (Zebularine + Foretinib; first compound 3.162 µM)	relative viability (Zebularine + Foretinib; first compound 10 µM)	relative viability (Zebularine + Foretinib; first compound 31.62 µM)	relative viability (Zebularine + Foretinib; first compound 100 µM)	relative viability (BI-D1870 + Bortezomib; first compound 0.04 µM)	relative viability (BI-D1870 + Bortezomib; first compound 0.1265 µM)	relative viability (BI-D1870 + Bortezomib; first compound 0.4 µM)	relative viability (BI-D1870 + Bortezomib; first compound 1.265 µM)	relative viability (BI-D1870 + Bortezomib; first compound 4 µM)	relative viability (Zebularine + Trametinib; first compound 1 µM)	relative viability (Zebularine + Trametinib; first compound 3.162 µM)	relative viability (Zebularine + Trametinib; first compound 10 µM)	relative viability (Zebularine + Trametinib; first compound 31.62 µM)	relative viability (Zebularine + Trametinib; first compound 100 µM)
NCI-H647	0.184	0.113	0.243	0.23	0.208	1.03	0.979	0.333	0.198	0.167	1.02	0.857	1.08	1.31	0.743	0.53	0.508	0.184	0.116	0.112
SK-LU-1	0.18	0.165	0.132	0.229	0.153	0.884	0.8	0.47	0.651	0.444	1.16	1.07	1.04	1.49	0.823	0.52	0.485	0.412	0.446	0.371
ChaGo-K-1	0.662	0.516	0.606	0.549	0.51	0.939	0.824	0.337	0.252	0.203	1.03	1.05	0.608	0.942	0.933	0.913	0.874	0.438	0.246	0.204
NCI-H1650	0.266	0.393	0.32	0.281	0.273	1.26	1.02	0.905	1.46	1.07	0.214	0.223	0.209	0.184	0.186	0.674	0.597	0.399	0.9	0.488
NCI-H2009	0.325	0.212	0.304	0.248	0.141	1.28	1.25	0.919	0.973	0.373	1.03	0.934	1.01	0.866	0.246	0.294	0.276	0.274	0.243	0.197
LOU-NH91	0.582	0.527	0.516	0.595	0.458	0.95	0.888	0.866	0.947	0.567	0.485	0.465	0.451	0.484	0.466	0.773	0.814	0.718	0.843	0.65
NCI-H2405	0.253	0.19	0.218	0.215	0.219	1.04	1.05	1.07	0.986	0.664	1.07	0.89	0.959	1.02	1.02	0.602	0.602	0.516	0.683	0.532
LCLC-97TM1	0.932	0.833	0.947	0.899	0.709	0.929	1	0.704	0.27	0.212	0.833	0.693	0.734	0.957	0.372	0.223	0.209	0.128	0.188	0.174
NCI-H596	0.633	0.475	0.597	0.684	0.564	0.75	0.926	0.559	0.891	0.602	1.38	0.86	1.12	1.19	0.943	0.853	0.904	0.58	0.918	0.774
NCI-H727	0.432	0.34	0.27	0.417	0.312	0.951	0.85	0.769	1.03	0.723	0.813	0.724	0.913	1.24	0.833	0.385	0.35	0.401	0.396	0.444
H3255	0.436	0.458	0.367	0.433	0.48	0.94	0.98	0.766	0.959	0.897	0.67	0.779	0.769	0.969	0.748	0.635	0.65		0.665	0.599
NCI-H1437	0.46	0.343	0.413	0.394	0.285	1.33	1.29	1.04	1.21	0.653	0.539	0.474	0.478	0.466	0.423	0.545	0.532	0.419	0.619	0.661
LU99A	0.753	0.51	0.512	0.467	0.425	0.884	0.807	0.577	0.436	0.195	1.34	1.03	1.12	1.06	1.02	0.604	0.503	0.502	0.329	0.195
HCC-827	0.383	0.373	0.321	0.412	0.26	1.15	1.07	0.718	0.714	0.317	1.14	1.1	0.985	1.03	1.12	0.535	0.574	0.492	0.546	0.404
HCC-366	0.633	0.528	0.603	0.731	0.427	0.935	0.922	0.797	0.65	0.163	1.1	0.911	1.05	1.1	0.317	0.425	0.402	0.274	0.313	0.0973
BEN	0.291	0.293	0.349	0.38	0.304	0.648	0.44	0.341	0.336	0.194	0.897	0.793	0.971	0.979	0.663	0.996	0.994	0.781	0.491	0.49
